Where “and” joins values, the source holds several entries; their conditions need not be identical. Equal values may be shown once. Where a name gives a salt, the structure may show the parent alone.
Columns and labels:
[1] = UV absorption and fluorescence emission spectra in different solvents; format: physicochemical; conditions: for λabs1 maximum absorption wavelength / λabs2 maximum absorption wavelength / λem1 maximum emission wavelength / λem2 maximum emission wavelength: 1 μM; for Φ1 fluorescence quantum yield / Φ2 fluorescence quantum yield: reference Rhodamine B in ethanol
Procedure: Firstly, stock solutions of 4 and 7 in DMSO were prepared respectively. Then sample solutions of 1 μM were prepared by diluting the mother liquors with corresponding chromatography grade solvent. UV absorption and fluorescence emission spectra of the sample solutions in different solvents were measured at room temperature, the results were shown in FIGS. 1A and 1B, respectively.

[2] = Viscosity experiments: absorption and emission spectra in glycerol-ethanol mixtures; format: physicochemical
Procedure: (§1) Firstly, DMSO solutions of 4 and 7 having a concentration of 1.0×10^−3 M were prepared, respectively. The stock solution of […] was added into 10 mL glycerol-ethanol mixture, and ultrasonicated to remove bubbles. The solution stayed for 1 hour, and then absorption and emission spectra therefore were measured by using UV-visible spectrophotometer and fluorescence spectrophotometer, and fluorescence lifetime of solution with different viscosity was detected as well. UV-visible spectrophotometer, model: Hp8453; fluorescence spectrophotometer model: FP-6500; Fluorescence lifetime equipment: Horiba Jobin Yvon Fluoromax-4-p.
(§2) Glycerol-ethanol mixture was a mixture of glycerol and ethanol, Vglycerol: Vethanol were 1:9, 2:8, 3:7, 4:6, 5:5, 6:4, 7:3, 8:2 and 9:1.

[3] = Fluorescence lifetime in solutions with different viscosity; format: physicochemical; conditions: FIG. 5A, 1 μM
Procedure: as §1, §2

[4] = tested on: MCF-7 cells; experiment: Fluorescence imaging of stained cells under laser confocal scanning microscopy; format: cell-based
Procedure: The compounds 4 and 7 (12 μL, 5 μM) in PBS buffer were added into a 6-well plate with incubated MCF-7 cells, and then the plate was incubated for 30 minutes in a cell incubator of 37° C. and 5% CO2. The plate was rinsed with PBS for 5 min×3 times, fresh culture medium was added thereto, and the cells were observed under laser confocal scanning microscopy (Leica, TCS-SP2, Germany). Typical region was selected, the traditional Cy5 was excited at 633 nm and 7 was excited at 514 nm, the cells were observed under oil immersion lens (1000×) for three times.
(§3) MCF-7 cells and Hela cells were inoculated on a 6-well plate and cultured for 24 hours at 37° C. and 5% CO2. Then, the dye was added in a final concentration of 5 μM, and the plate was incubated at 37° C. for 30 min. The culture medium was moved off, and the plate was rinsed with PBS for two times. Fresh culture medium 1200 μL was added and the fluorescence was excited.
as §3, with “Then, H2O2 133.3 µL was added in a final concentration of 1 mM/L, and the plate was incubated at 37° C. for 2 hours. The culture medium was moved off, and the plate was rinsed with PBS for two times. Fresh culture medium 1200 μL was added and then” for “Then,”, “μM,” for “μM, and”
MCF-7 cells and Hela cells were inoculated on a 6-well plate and cultured for 24 hours at 37° C. and 5% CO2. The culture medium was moved off, and the plate was rinsed with PBS for two times. Appropriate amount of 70% ethanol was added and then the plate was incubated at 37° C. for 30 min. Ethanol for fixing was moved off, and the plate was rinsed with PBS for two times. PBS 1200 μL was added and then the dye was added in a final concentration of 5 μM, the plate was incubated at 37° C. for 30 min and the fluorescence was excited.

Δλ1 Stokes Shift (λem1 − λabs1) ([1]; DMSO): 47 nm | Δλ2 Stokes Shift (λem2 − λabs2) ([1]; DMSO): 31 nm | Δλ3 Stokes Shift (λem2 − λabs1) ([1]; DMSO): 148 nm | ε1 molar extinction coefficient ([1]; DMSO): 45000 L/cm/mol | ε2 molar extinction coefficient ([1]; DMSO): 118200 L/cm/mol | λabs1 maximum absorption wavelength ([1]; DMSO): 522 nm | λabs2 maximum absorption wavelength ([1]; DMSO): 639 nm | λem1 maximum emission wavelength ([1]; DMSO): 569 nm | λem2 maximum emission wavelength ([1]; DMSO): 670 nm | Φ1 fluorescence quantum yield ([1]; DMSO): 0.0057 | Φ2 fluorescence quantum yield ([1]; DMSO): 0.0113 | Δλ1 Stokes Shift (λem1 − λabs1) ([1]; acetonitrile): 48 nm | Δλ2 Stokes Shift (λem2 − λabs2) ([1]; acetonitrile): 25 nm | Δλ3 Stokes Shift (λem2 − λabs1) ([1]; acetonitrile): 148 nm | ε1 molar extinction coefficient ([1]; acetonitrile): 59400 L/cm/mol | ε2 molar extinction coefficient ([1]; acetonitrile): 112000 L/cm/mol | λabs1 maximum absorption wavelength ([1]; acetonitrile): 513 nm | λabs2 maximum absorption wavelength ([1]; acetonitrile): 635 nm | λem1 maximum emission wavelength ([1]; acetonitrile): 561 nm | λem2 maximum emission wavelength ([1]; acetonitrile): 661 nm | Φ1 fluorescence quantum yield ([1]; acetonitrile): 0.0017 | Φ2 fluorescence quantum yield ([1]; acetonitrile): 0.0019 | Δλ1 Stokes Shift (λem1 − λabs1) ([1]; dichloromethane): 56 nm | Δλ2 Stokes Shift (λem2 − λabs2) ([1]; dichloromethane): 16 nm | Δλ3 Stokes Shift (λem2 − λabs1) ([1]; dichloromethane): 160 nm | ε1 molar extinction coefficient ([1]; dichloromethane): 49700 L/cm/mol | ε2 molar extinction coefficient ([1]; dichloromethane): 113500 L/cm/mol | λabs1 maximum absorption wavelength ([1]; dichloromethane): 512 nm | λabs2 maximum absorption wavelength ([1]; dichloromethane): 656 nm | λem1 maximum emission wavelength ([1]; dichloromethane): 568 nm | λem2 maximum emission wavelength ([1]; dichloromethane): 672 nm | Φ1 fluorescence quantum yield ([1]; dichloromethane): 0.0016 | Φ2 fluorescence quantum yield ([1]; dichloromethane): 0.006 | Δλ1 Stokes Shift (λem1 − λabs1) ([1]; ethanol): 56 nm | Δλ2 Stokes Shift (λem2 − λabs2) ([1]; ethanol): 27 nm | Δλ3 Stokes Shift (λem2 − λabs1), pseudo-Stokes Shift ([1]; ethanol): 158 nm | ε1 molar extinction coefficient ([1]; ethanol): 53100 L/cm/mol | ε2 molar extinction coefficient ([1]; ethanol): 125600 L/cm/mol | λabs1 maximum absorption wavelength ([1]; ethanol): 510 nm | λabs2 maximum absorption wavelength ([1]; ethanol): 641 nm | λem1 maximum emission wavelength ([1]; ethanol): 566 nm | λem2 maximum emission wavelength ([1]; ethanol): 668 nm | Φ1 fluorescence quantum yield ([1]; ethanol): 0.0022 | Φ2 fluorescence quantum yield ([1]; ethanol): 0.0048 | sensitivity to solvent polarity ([1]; low-viscosity solvents of different polarity): insensitive to solvent polarity | Δλ1 Stokes Shift (λem1 − λabs1) ([1]; methanol): 59 nm | Δλ2 Stokes Shift (λem2 − λabs2) ([1]; methanol): 25 nm | Δλ3 Stokes Shift (λem2 − λabs1) ([1]; methanol): 156 nm | ε1 molar extinction coefficient ([1]; methanol): 49000 L/cm/mol | ε2 molar extinction coefficient ([1]; methanol): 122000 L/cm/mol | λabs1 maximum absorption wavelength ([1]; methanol): 509 nm | λabs2 maximum absorption wavelength ([1]; methanol): 636 nm | λem1 maximum emission wavelength ([1]; methanol): 568 nm | λem2 maximum emission wavelength ([1]; methanol): 665 nm | Φ1 fluorescence quantum yield ([1]; methanol): 0.0022 | Φ2 fluorescence quantum yield ([1]; methanol): 0.0031 | absorption peak, longer wavelength ([1]; solvent not stated): 655 nm | absorption peak, shorter wavelength ([1]; solvent not stated): 510 nm | emission peak, longer wavelength ([1]; solvent not stated): 668 nm and 665 nm | emission peak, shorter wavelength ([1]; solvent not stated): 565 nm | Δλ1 Stokes Shift (λem1 − λabs1) ([1]; water): 50 nm | Δλ2 Stokes Shift (λem2 − λabs2) ([1]; water): 28 nm | Δλ3 Stokes Shift (λem2 − λabs1) ([1]; water): 135 nm | ε1 molar extinction coefficient ([1]; water): 31000 L/cm/mol | ε2 molar extinction coefficient ([1]; water): 52400 L/cm/mol | λabs1 maximum absorption wavelength ([1]; water): 520 nm | λabs2 maximum absorption wavelength ([1]; water): 627 nm | λem1 maximum emission wavelength ([1]; water): 570 nm | λem2 maximum emission wavelength ([1]; water): 655 nm | Φ1 fluorescence quantum yield ([1]; water): 0.0006 | Φ2 fluorescence quantum yield ([1]; water): 0.0028 | UV absorption with variation of solution viscosity ([2]; FIG. 4A, 1 μM): kept constant | sensitivity of fluorescence intensity to solvent viscosity ([2]; glycerol-ethanol mixtures): quite sensitive to solvent viscosity | fluorescence lifetime at 665 nm with increase of solution viscosity [3]: obviously elongated
SMILES: CCN1/C(=C/C=C(C=C(C#N)C#N)/C=C/C2=[N+](CC)c3ccccc3C2(C)C)C(C)(C)c2ccccc21 [compound 7, 1,5-di(1-N-ethyl-3,3-dimethyl-2,3-H— lindoline)-3-(2,2-dicyanovinyl)-1,3,5-pentatriene chloride quaternary ammonium salt cyanine dye]
ratio value of fluorescence (red 665 / green 565 nm channel) ([4]; MCF-7 cells stood 4 hours at room temperature after incubation (dying)): ratio value of the probe was between (1) and (2) | ratio value of fluorescence (red 665 / green 565 nm channel) ([4]; MCF-7 cells treated with hydrogen peroxide (1 mM), apoptosis induced): ratio value was increased | ratio value of fluorescence (red 665 / green 565 nm channel) ([4]; normal live MCF-7 cells, 5 μM, 30 minutes): ratio value was small

Source: US8889887B2, “Pentamethine cyanine fluorescent dyes, preparation methods and uses thereof” (Dalian University of Technology, priority 2011, dated 2014)
